A short description of the data set: Self-diffusion NMR (SD-NMR) diffusion coefficients of the components of the AX-loaded medium. The data set is classed as physicochemical. As to conditions: 0.5 wt % AX-loaded medium. The protocol: In order to determine the structure of the oil droplets (or micelles) of the medium, self-diffusion NMR analysis was carried out. SD-NMR is able to locate each component within the medium via measurements of its diffusion coefficient.
NMR measurements were performed with a Bruker AVII 500 spectrometer equipped with GREAT 1/10 gradients, a 5 mm BBO and a 5 mm BBI probe, both with a z-gradient coil and with a maximum gradient strength of 0.509 and 0.544 Tm^−1, respectively. Diffusion was measured using an asymmetric bipolar longitudinal eddy-current delay (bpLED) experiment, or an asymmetric bipolar stimulated echo (known as one-shot) experiment with convection compensation and an asymmetry factor of 20%, ramping the strongest gradient from 2% to 95% of maximum strength in 32 steps. The spectrum was processed with the Bruker TOPSPIN software. NMR spectra were recorded at 25±0.2° C. The components were identified by their chemical shift in 1H NMR.

As to `CCO` [EtOH, Ethanol], the Diffusion coefficient (water content 0 wt %) is recorded as 4.13 × 10^−11 m^2/sec; the Diffusion coefficient (water content 10 wt %) is on record as 4.66 × 10^−11 m^2/sec; the Diffusion coefficient (water content 20 wt %) is reported as 4.78 × 10^−11 m^2/sec; the Diffusion coefficient (water content 30 wt %) is 8.67 × 10^−11 m^2/sec; the Diffusion coefficient (water content 40 wt %) is reported as 1.2 × 10^−10 m^2/sec; the Diffusion coefficient (water content 50 wt %) is recorded as 1.7 × 10^−10 m^2/sec. The Diffusion coefficient was 2.33 × 10^−10 m^2/sec (water content 60 wt %), 3.32 × 10^−10 m^2/sec (water content 70 wt %), 4.67 × 10^−10 m^2/sec (water content 80 wt %) and 5.89 × 10^−10 m^2/sec (water content 90 wt %).
Consider `C=C(C)[C@H]1CC=C(C)CC1` [R-(+)-limonene, R-(+)-Limonene], for which the Diffusion coefficient was 5.46 × 10^−11 m^2/sec (water content 0 wt %); 3.09 × 10^−11 m^2/sec (water content 10 wt %); 2.36 × 10^−11 m^2/sec (water content 20 wt %); 3.2 × 10^−12 m^2/sec (water content 30 wt %); 1.4 × 10^−12 m^2/sec (water content 40 wt %); 1.4 × 10^−12 m^2/sec (water content 50 wt %). Besides, the Diffusion coefficient reads like this: (water content 60 wt %) 3.1 × 10^−12 m^2/sec; (water content 70 wt %) 5.7 × 10^−12 m^2/sec; (water content 80 wt %) 1.10 × 10^−11 m^2/sec; (water content 90 wt %) 1.91 × 10^−11 m^2/sec.
Turning to `CC1=C(/C=C/C(C)=C/C=C/C(C)=C/C=C/C=C(C)/C=C/C=C(C)/C=C/C2=C(C)C(=O)[C@@H](O)CC2(C)C)C(C)(C)C[C@H](O)C1=O` [AX, astaxanthin], the Diffusion coefficient is given as 4.7 × 10^−12 m^2/sec (water content 0 wt %); 3 × 10^−12 m^2/sec (water content 10 wt %); 1.4 × 10^−12 m^2/sec (water content 20 wt %); 3 × 10^−13 m^2/sec (water content 30 wt %); 3 × 10^−13 m^2/sec (water content 40 wt %); 7 × 10^−13 m^2/sec (water content 50 wt %). Besides, the Diffusion coefficient (water content 60 wt %) is 1.4 × 10^−12 m^2/sec, the Diffusion coefficient (water content 70 wt %) was 4.8 × 10^−12 m^2/sec and the Diffusion coefficient (water content 80 wt %) was 1.12 × 10^−11 m^2/sec.
In the case of `[2H]O[2H]` [Formulation D2O, D2O], the Diffusion coefficient by setting is: (water content 10 wt %) 3.1 × 10^−11 m^2/sec; (water content 20 wt %) 2.84 × 10^−11 m^2/sec; (water content 30 wt %) 3.2 × 10^−12 m^2/sec; (water content 40 wt %) 1.3 × 10^−12 m^2/sec; (water content 50 wt %) 2.69 × 10^−11 m^2/sec; (water content 60 wt %) 7.96 × 10^−10 m^2/sec. Further, the Diffusion coefficient is, setting by setting: (water content 70 wt %) 9.1 × 10^−10 m^2/sec; (water content 80 wt %) 1.16 × 10^−9 m^2/sec; (water content 90 wt %) 1.48 × 10^−09 m^2/sec.
For `CCCCCCCC/C=C\CCCCCCCC(=O)OCCOCC(OCCO)C1OCC(OCCO)C1OCCO` (stereo not shown) [Tween 80, Polysorbate 80], the Diffusion coefficient was 4.5 × 10^−12 m^2/sec (water content 0 wt %); 3.5 × 10^−12 m^2/sec (water content 10 wt %); 2.9 × 10^−12 m^2/sec (water content 20 wt %); 6 × 10^−13 m^2/sec (water content 30 wt %); 4 × 10^−13 m^2/sec (water content 40 wt %); 9 × 10^−13 m^2/sec (water content 50 wt %). Moreover, the Diffusion coefficient is, setting by setting: (water content 60 wt %) 2.2 × 10^−12 m^2/sec; (water content 70 wt %) 5.3 × 10^−12 m^2/sec; (water content 80 wt %) 1.05 × 10^−11 m^2/sec; (water content 90 wt %) 1.91 × 10^−11 m^2/sec.
With `CC(O)CO` (stereo not shown) [PG, Propylene glycol], the Diffusion coefficient runs as follows: (water content 0 wt %) 4.43 × 10^−11 m^2/sec; (water content 10 wt %) 4.78 × 10^−11 m^2/sec; (water content 20 wt %) 4.86 × 10^−11 m^2/sec; (water content 30 wt %) 8.69 × 10^−11 m^2/sec; (water content 40 wt %) 1.23 × 10^−10 m^2/sec; (water content 50 wt %) 1.75 × 10^−10 m^2/sec. In addition, the Diffusion coefficient is, setting by setting: (water content 60 wt %) 2.41 × 10^−10 m^2/sec; (water content 70 wt %) 3.35 × 10^−10 m^2/sec; (water content 80 wt %) 4.67 × 10^−10 m^2/sec; (water content 90 wt %) 6.03 × 10^−10 m^2/sec.

For the origin of these results see patent publication US11224628B2, “Method for extraction of an agent from a plant source” (Yissum Research Development Company of the Hebrew …, priority 2017, dated 2022).
